Measurements reported in paper PMC5362036, “Cohesive Properties of the Caulobacter crescentus Holdfast Adhesin Are Regulated by a Novel c-di-GMP Effector Protein” (mBio, 2017).

Columns and labels:
Type in all cases: binding
[1] = target: T1, HfsK (CC3689) (Caulobacter vibrioides, UniProt Q9A277, R151A); assay: UV cross-linking with […]c-di-GMP; details: StrepII-tagged, 1 uM protein; labelled compound
T1 construct: gene CC_3689; full length; His-tagged (ITC) or StrepII-tagged (mutants, UV cross-linking), expressed in E. coli; tags kept as far as told

[2] = target: T2, HfsK (CC3689) (Caulobacter vibrioides, UniProt Q9A277); assay: isothermal titration calorimetry
T2 construct: gene CC_3689; full length; His-tagged (ITC) or StrepII-tagged (mutants, UV cross-linking), expressed in E. coli; tags kept as far as told
Source text: isothermal titration calorimetry on HfsK (CC3689) | His-CC3689 bound c-di-GMP in a concentration-dependent manner with an equilibrium disassociation constant (Kd)

[3] = target: T3, HfsK (CC3689) (Caulobacter vibrioides, UniProt Q9A277, R112A); assay: UV cross-linking with […]c-di-GMP; details: StrepII-tagged, 1 uM protein; labelled compound
T3 construct: gene CC_3689; full length; His-tagged (ITC) or StrepII-tagged (mutants, UV cross-linking), expressed in E. coli; tags kept as far as told

[4] = target: T4, HfsK (CC3689) (Caulobacter vibrioides, UniProt Q9A277, R240A); assay: UV cross-linking with […]c-di-GMP; details: StrepII-tagged, 1 uM protein; labelled compound
T4 construct: gene CC_3689; full length; His-tagged (ITC) or StrepII-tagged (mutants, UV cross-linking), expressed in E. coli; tags kept as far as told

[5] = target: T5, HfsK (CC3689) (Caulobacter vibrioides, UniProt Q9A277, R267A); assay: UV cross-linking with […]c-di-GMP; details: StrepII-tagged, 1 uM protein; labelled compound
T5 construct: gene CC_3689; full length; His-tagged (ITC) or StrepII-tagged (mutants, UV cross-linking), expressed in E. coli; tags kept as far as told

[6] = target: T6, HfsK (CC3689) (Caulobacter vibrioides, UniProt Q9A277, R102A); assay: UV cross-linking with […]c-di-GMP; details: StrepII-tagged, 1 uM protein; labelled compound
T6 construct: gene CC_3689; full length; His-tagged (ITC) or StrepII-tagged (mutants, UV cross-linking), expressed in E. coli; tags kept as far as told
T6 sequence (Q9A277 entry or part of it R102A): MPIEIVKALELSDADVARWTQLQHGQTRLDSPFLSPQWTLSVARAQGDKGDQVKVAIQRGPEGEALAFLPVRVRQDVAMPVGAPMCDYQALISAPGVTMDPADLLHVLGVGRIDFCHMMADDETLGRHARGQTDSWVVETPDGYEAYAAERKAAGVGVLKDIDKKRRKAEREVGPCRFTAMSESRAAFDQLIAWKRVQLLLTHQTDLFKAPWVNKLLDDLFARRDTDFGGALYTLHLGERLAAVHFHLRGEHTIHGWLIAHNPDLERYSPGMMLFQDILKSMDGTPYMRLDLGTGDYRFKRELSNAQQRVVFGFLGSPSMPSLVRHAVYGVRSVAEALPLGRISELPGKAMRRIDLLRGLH

T2 sequence (Q9A277 entry or part of it): as the sequence (Q9A277 entry or part of it R102A) above, with A102R counted along it
T1 sequence (Q9A277 entry or part of it R151A): as the sequence (Q9A277 entry or part of it R102A) above, with A102R, R151A counted along it
T3 sequence (Q9A277 entry or part of it R112A): as the sequence (Q9A277 entry or part of it R102A) above, with A102R, R112A counted along it
T4 sequence (Q9A277 entry or part of it R240A): as the sequence (Q9A277 entry or part of it R102A) above, with A102R, R240A counted along it
T5 sequence (Q9A277 entry or part of it R267A): as the sequence (Q9A277 entry or part of it R102A) above, with A102R, R267A counted along it

SMILES: Nc1nc2c(ncn2[C@@H]2O[C@@H]3COP(=O)(O)O[C@H]4[C@@H](O)[C@H](n5cnc6c(=O)[nH]c(N)nc65)O[C@@H]4COP(=O)(O)O[C@H]3[C@H]2O)c(=O)[nH]1 [c-di-GMP]
- UV cross-linking with [33P]c-di-GMP [1]: residues of HfsK (R102, R112, R151, R240, and R267) were replaced with alanine
- Kd [2]: 0.724 µM
- UV cross-linking with [33P]c-di-GMP [3]: HfsKR112a as the only mutant variant with reduced binding affinity for c-di-GMP
- UV cross-linking with [33P]c-di-GMP [4]: residues of HfsK (R102, R112, R151, R240, and R267) were replaced with alanine
- UV cross-linking with [33P]c-di-GMP [5]: residues of HfsK (R102, R112, R151, R240, and R267) were replaced with alanine
- UV cross-linking with [33P]c-di-GMP [6]: residues of HfsK (R102, R112, R151, R240, and R267) were replaced with alanine
